Experimental data as given in article PMC9699072 (Molecules, 2022).
Values joined by “and” are separate entries in the source; they are usually repeats but may differ in a detail not shown here. Equal values may be shown once. Where a name gives a salt, the structure may show the parent alone.

Legend:
Assay type in all cases: biochemical
[1] = FRAP (ferric reducing antioxidant power) assay; conditions: for FRAP TE (Trolox equivalent): mean ± SEM, n = 3, 1 h, 37 °C, pH 3.6
Method: The FRAP (ferric reducing antioxidant power) assay measures the ability of antioxidants to reduce the ferric 2,4,6-tripyridyl-s-triazine complex [Fe(TPTZ)2]^3+ to the intensely blue ferrous complex [Fe(TPTZ)2]^2+ in an acidic medium. The measurements were performed as previously described in detail. The results are expressed as TE (Trolox equivalents).
The FRAP (ferric reducing antioxidant power) assay measures the ability of antioxidants to reduce the ferric 2,4,6-tripyridyl-s-triazine complex [Fe (TPTZ)2]^3+ to the intensely blue ferrous complex [Fe (TPTZ)2]^2+ (λ = 593 nm) in acidic medium. 2,4,6-Tris(pyridin-2-yl)-1,3,5-triazine (TPTZ), FeCl3·6H2O, Trolox, quercetin and DMSO were obtained from Sigma-Aldrich Chemical Co. (St. Louis, MO, USA). The FRAP reagent contained 2.5 mL of 10 mM TPTZ solution in 40 mM HCl, 2.5 mL of 20 mM FeCl3·6H2O water solution, and 25 mL of 0.3 M acetate buffer (pH 3.6). Aliquots of 10 µL of the test compound solution in DMSO (0.5 mM) were mixed with 240 µL of FRAP reagent, and the absorbance of the mixture was measured spectrophotometrically (FLUOStar OPTIMA microplate spectrophotometer (BMG Labtech, Ortenberg, Germany)) at 600 nm after 1 h incubation at 37 °C against a blank. Trolox was used as a reference compound. Quercetin was used as a positive control. A calibration curve with linear formula y = 0.03x (R^2 = 0.998, p < 0.0001) was prepared for Trolox solutions in DMSO at a range of 2.5–100 µM, and the results are expressed as Trolox equivalents (TE), the values calculated as the ratio of the concentrations of Trolox and the test compound, resulting in the same effect.

[2] = system: porcine liver CES; test: Inhibition of CES (4-nitrophenol acetate hydrolysis); conditions: ± SEM; for CES % inhibition at 20 μM: n = 3, 10 min incubation 25 °C; for IC50: n = 3
From the text: Given the available literature data on the ability of pyrazole derivatives to inhibit acetylcholinesterase (AChE) and human carboxylesterase-1 (CES), we performed an investigation of the esterase profile for new compounds 1a–j and 4a–j, including an evaluation of their inhibitory effect on the standard enzymes set: human erythrocyte AChE, equine serum butyrylcholinesterase (BChE), and porcine liver CES (Table 2). The applicability of this set of enzymes was shown by us earlier.
Human erythrocyte acetylcholinesterase (AChE, EC 3.1.1.7), equine serum butyrylcholinesterase (BChE, EC 3.1.1.8), porcine liver carboxylesterase (CES, EC 3.1.1.1), acetylthiocholine iodide (ATCh), butyrylthiocholine iodide (BTCh), 4-nitrophenol acetate (4-NPA), and 5,5′-dithio-bis-(2-nitrobenzoic acid) (DTNB) were purchased from Sigma-Aldrich (Saint Louis, MO, USA).
All the kinetic experiments were performed under standard conditions, according to the protocol of IPAC RAS for a reversible inhibitors study.
Ellman’s colorimetric assay was used to measure AChE and BChE activity in 0.1 M K/Na phosphate buffer at pH 7.5, 25 °C [86]. Final concentrations of reactants were 0.33 mM DTNB, 0.02 unit/mL of AChE or BChE, and 1 mM of substrate (ATCh or BTCh, respectively). Reagent blanks consisted of reaction mixtures without enzyme to assess non-enzymatic hydrolysis of substrates. Porcine liver CES activity was assessed colorimetrically in 0.1 M K/Na phosphate buffer with pH 8.0 at 25 °C, by measuring the absorbance of 4-nitrophenol at 405 nm. Final enzyme and substrate (4-NPA) concentrations were 0.02 unit/mL and 1 mM, respectively. Reagent blanks included all constituents except enzyme.
Test compounds were dissolved in DMSO. Reaction mixtures contained a final DMSO concentration of 2% (v/v). Enzyme inhibition was first assessed at a single concentration of 20 µM for each compound after a 10 min incubation at 25 °C in three separate experiments. Compounds inhibiting the enzyme by more than 30% were then selected for determination of the IC50 (inhibitor concentration resulting in 50% inhibition of control enzyme activity). […] Substrate was then added, and residual enzyme activity relative to an inhibitor-free control was measured using a FLUOStar Optima microplate reader (LabTech, Ortenberg, Germany).

[3] = ABTS radical cation scavenging (decolorization) assay; conditions: mean ± SEM, n = 3; for IC50: 1 h, read-out: ABTS IC50 (compound concentration required for 50% reduction of the ABTS radical-cation) (converted); for ABTS TEAC (Trolox equivalent antioxidant capacity): 1 h incubation, relative to Trolox
Method: The ABTS assay is based on the direct quenching of the ABTS cation radical (ABTS^•+) by antioxidants. The assay is carried out by spectrophotometric determination of a decrease in absorbance of a stable dark green ABTS^•+ solution after its interaction with an antioxidant compound [56]. The measurements were performed as previously described in detail. The results are expressed as TEAC values (Trolox equivalent antioxidant capacity) and IC50 values (compound concentration required for 50% reduction of the ABTS radical).
Radical scavenging activity of the compounds was assessed using the ABTS radical cation (ABTS^•+) decolorization assay with some modifications. ABTS (2,2′-azinobis-(3-ethylbenzothiazoline-6-sulfonic acid)) was purchased from Tokyo Chemical Industry Co., Ltd. (Tokyo, Japan), and potassium persulfate (dipotassium peroxodisulfate), Trolox (6-hydroxy-2,5,7,8-tetramethylchroman-2-carboxylic acid), and HPLC-grade ethanol and DMSO were obtained from Sigma-Aldrich (Saint Louis, MO, USA). Aqueous solutions were prepared using deionized water. All test compounds were dissolved in DMSO.
The solution of cation radical ABTS^•+ was produced by incubation of an aqueous solution of 7 mM ABTS and 2.45 mM potassium persulfate solution in equal quantities for 12–16 h at room temperature in the dark. Radical scavenging capacity of the compounds was analyzed by mixing 10 μL of compound with 240 μL of ABTS^•+ working solution in ethanol (100 μM final concentration). Data were given for 1 h of incubation of compounds with ABTS^•+. The reduction in absorbance was measured spectrophotometrically at 734 nm using an xMark microplate UV/VIS microplate spectrophotometer (Bio-Rad, Hercules, CA, USA).
Ethanol blanks were run in each assay. Values were obtained from three replicates of each sample and three independent experiments.
Standard antioxidant Trolox was used as a reference compound. Antioxidant capacity as Trolox equivalent (TEAC) values was determined as the ratio between the slopes obtained from the linear correlation of the ABTS radical absorbance with the concentrations of tested compounds and Trolox. Quercetin was used as a positive control. For the test compounds that reduced ABTS^•+ absorbance by more than 60% at 100 µM, we also determined the IC50 values (the compound concentration required for a 50% reduction of the ABTS radical). The compounds were tested in the concentration range of 0.5–400 µM.

Row | Compound | FRAP TE (Trolox equivalent) [1] [TE] | CES % inhibition at 20 μM [2] [%] | IC50 [3] [µM] | ABTS TEAC (Trolox equivalent antioxidant capacity) [3] | IC50 [2] | FRAP TE (Trolox equivalent) ([1]; listed as APH) [TE] | ABTS TEAC (Trolox equivalent antioxidant capacity) ([3]; listed as APH) [TEAC] | Ferric reducing activity lower than that of EDA ([1]; FRAP test, relative to EDA) [%]
1 | Cc1n[nH]c(O)c1N.Cl [4j, 4-Amino-3-methyl-1H-pyrazol-5-ol hydrochloride] | 1.04 ± 0.04 | 4.3 ± 0.9 | 20.1 | 0.95 ± 0.04 TEAC |  |  |  | 
2 | Nc1c(C(F)(F)C(F)(F)C(F)(F)C(F)(F)F)nn(-c2ccccc2)c1O [4c, 5-Hydroxy-1-phenyl-3-(nonafluorobuthyl)-1H-pyrazol-4-ammonium hydrochloride] | 0.98 ±0.05 |  | 23.4 | 0.85 ± 0.04 TEAC | 10 µM and 10.2 µM |  |  | 
3 | Cc1nn(-c2ccccc2)c(O)c1N.Cl.O [4d, 4-Amino-3-methyl-1-phenyl-1H-pyrazol-5-ol hydrochloride hydrate] | 0.98 ± 0.08 |  | 23.3 | 0.93 ± 0.03 TEAC | 98.7 ± 8.8 µM | 0.98 | 0.93 | 
4 | Cl.Nc1c(C(F)(F)C(F)(F)C(F)(F)F)n[nH]c1O.O [4h, 4-Amino-3-(heptafluoropropyl)-1H-pyrazol-5-ol hydrate hydrochloride] | 1.03 ± 0.04 |  | 24.8 | 0.78 ± 0.04 TEAC | 81.8 ± 7.3 µM |  |  | 
5 | Cl.Nc1c(C(F)(F)F)n[nH]c1O [4e, 4-Amino-3-(trifluoromethyl)-1H-pyrazol-5-ol hydrochloride] | 1.02 ± 0.02 |  | 21.2 | 0.92 ± 0.04 TEAC |  |  |  | 
6 | Cl.Nc1c(C(F)(F)C(F)(F)C(F)(F)C(F)(F)F)n[nH]c1O.O [4i, 4-Amino-3-(nonafluorobutyl)-1H-pyrazol-5-ol hydrate hydrochloride] | 0.75 ± 0.05 |  | 40.8 | 0.45 ± 0.02 TEAC | 22 µM and 21.8 µM |  |  | 
7 | Oc1cc(C(F)(F)F)nn1-c1ccccc1 [CF3-EDA, 3-trifluoromethyl-1-phenylpyrazol-5-ol, reference compound] | 0.63 ± 0.03 | 7.6 ± 1.2 | 21.4 | 0.95 ± 0.04 TEAC |  |  |  | 20
8 | 3-methyl-1-phenyl-2-pyrazolin-5-one [EDA, reference compound] | 0.80 ± 0.01 | 8.4 ± 0.7 | 21.4 | 0.96 ± 0.04 TEAC |  |  |  | 
9 | Cl.Nc1c(C(F)(F)F)nn(-c2ccccc2)c1O [4a, 4-Amino-3-(trifluoromethyl)-1-phenyl-1H-pyrazol-5-ol hydrochloride] | 0.89 ± 0.05 |  | 27.2 | 0.75 ± 0.04 TEAC | 44.9 ± 4 µM |  |  | 
10 | CC1=NNC(=O)/C1=N\O [1j] | 0.09 ± 0.01 |  |  | 0.2 ± 0.03 (n.d.) TEAC |  |  |  | 
11 | Cl.Nc1c(C(F)(F)C(F)(F)F)nn(-c2ccccc2)c1O.O [4b, 4-Amino-3-(pentafluoroethyl)-1-phenyl-1H-pyrazol-5-ol hydrate hydrochloride] | 0.75 ± 0.07 | 16.6 ± 1.4 | 34.1 | 0.6 ± 0.03 TEAC |  |  |  | 
12 | Cl.Nc1c(C(F)(F)C(F)(F)F)n[nH]c1O.O [4g, 4-Amino-3-(pentafluoroethyl)-1H-pyrazol-5-ol hydrate hydrochloride] | 0.88 ± 0.04 | 6.7 ± 1.2 | 25.7 | 0.73 ± 0.03 TEAC |  |  |  | 
13 | O=C1NN=C(C(F)(F)F)/C1=N/O [1e] | 0.07 ± 0.01 | 5.9 ± 1.1 |  | 0.23 ± 0.01 (n.d.) TEAC |  |  |  | 
14 | O=C1NN=C(C(F)(F)C(F)(F)F)/C1=N/O [1g] | 0.13 ± 0.01 | 7.8 ± 1.4 |  | 0.13 ± 0.04 (n.d.) TEAC |  |  |  | 
